The text below walks through data of ChEMBL document CHEMBL5728326, “Aminopyridine derivatives and their use as selective ALK-2 inhibitors” (2021).

In assay [1] the target is Activin receptor type-1-like (Homo sapiens, UniProt P37023).
Assay [2] has as its target Bone morphogenetic protein receptor type-1B (Homo sapiens, UniProt O00238).

Chain of Bone morphogenetic protein receptor type-1B (O00238 14-502 limits assumed, change not shown): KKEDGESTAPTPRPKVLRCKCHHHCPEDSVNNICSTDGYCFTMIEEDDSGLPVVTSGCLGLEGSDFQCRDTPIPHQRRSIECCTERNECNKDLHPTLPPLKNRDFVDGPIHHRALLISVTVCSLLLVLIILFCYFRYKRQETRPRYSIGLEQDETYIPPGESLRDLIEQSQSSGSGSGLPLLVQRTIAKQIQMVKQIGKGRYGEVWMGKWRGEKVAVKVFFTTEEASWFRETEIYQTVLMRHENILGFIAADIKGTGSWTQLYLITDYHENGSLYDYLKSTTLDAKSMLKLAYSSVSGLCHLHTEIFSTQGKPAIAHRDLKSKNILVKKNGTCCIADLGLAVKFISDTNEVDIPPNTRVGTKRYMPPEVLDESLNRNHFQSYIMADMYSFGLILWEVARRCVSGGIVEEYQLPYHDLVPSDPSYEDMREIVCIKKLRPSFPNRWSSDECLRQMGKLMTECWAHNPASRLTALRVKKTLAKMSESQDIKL
Chain of Activin receptor type-1-like (P37023 22-503 limits assumed, change not shown): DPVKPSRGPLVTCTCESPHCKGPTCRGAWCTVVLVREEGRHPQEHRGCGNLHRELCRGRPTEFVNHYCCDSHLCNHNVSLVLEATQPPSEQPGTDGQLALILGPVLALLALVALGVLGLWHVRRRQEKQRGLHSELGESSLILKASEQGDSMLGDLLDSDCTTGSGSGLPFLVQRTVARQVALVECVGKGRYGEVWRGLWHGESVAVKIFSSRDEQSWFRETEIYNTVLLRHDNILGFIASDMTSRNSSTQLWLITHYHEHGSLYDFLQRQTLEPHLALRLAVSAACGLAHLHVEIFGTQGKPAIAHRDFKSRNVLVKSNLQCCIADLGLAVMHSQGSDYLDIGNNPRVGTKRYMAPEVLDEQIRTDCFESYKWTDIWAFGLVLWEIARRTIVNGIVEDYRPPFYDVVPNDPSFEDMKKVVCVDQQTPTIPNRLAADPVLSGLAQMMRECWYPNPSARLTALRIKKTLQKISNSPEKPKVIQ

On to `NC(=O)c1ccc(-c2cnc(N)c(C(=O)N[C@H]3CC[C@@H](O)CC3)c2)cc1`, for which the values for the IC50 in assay [1] and in assay [2] were 0.89 µM and 10 µM, respectively.
